Experiments:
[1] = tested on: M. incognita J2 larvae; assay: Meloidogyne incognita in vitro assays (J2 movement); type: in vivo; conditions: 45 μM, 2 days, relative to DMSO control
Method: M. incognita (Kofoid & White) Chitwood Race 1 (originally isolated in Maryland) was used for all experiments, and was maintained on pepper (Capsicum annuum L.) cv. PA-136 in a greenhouse as previously described^64. Infective J2 juveniles were collected as described in ref.65. The microwell dose-response experiments were carried out similarly to previously described protocols^64, 66. In brief, 100 J2s, in 10 μL of deionized water, were added to the wells of 96-well polystyrene plates, after which 190 μL of deionized water containing dissolved chemical, or DMSO alone, was added to each well. The chemicals were tested at 45 μM, and the final concentration of DMSO in each well was 0.5% (v/v). The wells were covered with a plastic adhesive strip, and the lids of the plates were sealed with parafilm. The plates were incubated at 25° C. The mobile fraction of worms was quantified by counting the number of mobile and immobile worms after 2 days of incubation, and then dividing the number of mobile worms by the total number of worms in the well. Three technical replicates were performed for each treatment, and an average value for the mobile fraction of worms was calculated across the three replicates. The percent effectiveness at inhibiting nematode movement was calculated by dividing the average value for the chemical treatment by the average value for the DMSO control, then subtracting this value from 1, and then multiplying by 100.

[2] = tested on: S. cerevisiae; assay: Saccharomyces cerevisiae (budding yeast) dose-response experiments; type: cell-based; conditions: non-target system; growth over 18 hours
Method: A saturated culture of the yeast strain RY0568 was diluted to an OD600 of 0.015 with fresh YPD media (see ref. 62). 100 μL of this dilute yeast suspension was added to each well of a 96-well plate. The yeast were grown for 4 hours at 30° C. with shaking at 140 rpm. Using a multichannel pipette, 1 μL of chemical solution was added to each well to achieve the desired final concentrations. The final DMSO concentration was 1% (v/v). The microwell plate was then loaded into a TECAN plate reader set at 30° C. The OD600 of each well was measured over an 18-hour period, and the plate was shaken intermittently throughout the run. The areas under the resultant growth curves were calculated using R scripts adapted from those found in the MESS package. The area under the curve at each concentration of a dose-response assay was divided by the area under the curve for the corresponding DMSO control, resulting in a “relative fitness” value for each concentration tested. Three biological replicates were performed for each dose-response experiment, and the relative fitness values were averaged across the three replicates.

[3] = tested on: tomato plants; assay: Root mass of tomato plants in the infectivity assays; type: in vivo, Solanum lycopersicum; conditions: 45 μM
Method: (§1) An M. incognita population originally collected from grape (Vitis vinifera) in Parlier, Calif., was used for all experiments, and they were maintained on tomato plants (Solanum lycopersicum ‘Rutgers’) as previously described^73. Infective J2 juveniles were collected as described in^73. For the infectivity assays, 90 grams of soil (1:1 sand:loam mix) was added to each cell of several 6-cell plastic garden packs. The soil was drenched with 18 mL of deionized water containing dissolved chemical or DMSO alone. 2,500 infective J2 juveniles were then added to the soil in 2 mL of deionized water, for a total water volume of 20 mL. The final concentration of the chemicals in water was 45 μM. The DMSO concentration varied from 0.1% to 0.8% (v/v) depending on the stock concentration of the chemical. The highest DMSO concentration was used as the DMSO control. The J2s were incubated in the soil and chemical for 24 hours, after which two- to three-week old tomato seedlings were transplanted into the soil (one plant per cell). Two replicates were performed for each chemical treatment, and four replicates were done for the DMSO controls. The whole experiment was replicated twice, in two different batches on two different days, for a total of four replicates for each chemical treatment, and eight replicates for the DMSO controls. Inoculated plants were grown for 8 weeks in a greenhouse, as described^73, under long-day conditions (16-h photoperiod) with 26/18° C. day/night temperatures. After 8 weeks, the plants were destructively harvested. The tops were removed and discarded, and roots were gently washed with water to remove adhering soil. Eggs were extracted by placing rinsed roots in 0.6% sodium hypochlorite and agitating at 300 rpm for 3 min. Roots were then rinsed over nested 250- and 25.4-μm sieves, with eggs collected from the latter and suspended in water. Roots were dried in a 65° C. oven for at least 24 hours, after which dry roots were weighed. The number of eggs from each plant root was counted on a dissection microscope using a haemocytometer, and the number of eggs per milligram of root was calculated by dividing the total egg number by the mass of the dried root material. An average was taken across the replicates performed on the same day, and then normalized to the DMSO control average. To calculate percent effectiveness at inhibiting reproduction, the normalized values were subtracted from 1, and then multiplied by 100. An average percent effectiveness value was then calculated across the two different batches carried out on different days.

[4] = tested on: C57BL/6 mice; assay: Mouse studies (oral dosing, pathologies); type: in vivo; conditions: oral dose 50 mg/kg over several days
Method: Female C57BL/6 mice (bred in house, breeding pairs originally purchased from Charles River, Canada) 6-8 weeks of age were used for all experiments. Animal experiments were approved by the University of Calgary's Animal Care Committee. Infected mice were orally gavaged with a 200 third stage Heligmosomoides polygyrus larvae (maintained in house. Original stock was a gift from Dr. Allen Shostak, University of Alberta, Canada) and euthanized on day 22 post infection. […] Mice were treated orally with 5 daily doses of exemplary compound Ia (50 mg/kg resuspended in DMSO). Control mice were given DMSO only as a control.

[5] = tested on: Haemonchus contortus eggs; assay: Haemonchus contortus egg hatching assay; type: in vivo; conditions: for Hatch Rate: 60 μM, 48 hours, ± standard deviation; for reduction of egg hatching relative to the untreated mock control: 60 micromolar, 48-hour treatment
Method: Fresh sheep faeces containing eggs of the MHco3(ISE) strain of H. contortus was supplied by Dr. Doug Colwell and Dawn Gray (Lethbridge Research Station, Agriculture and Agri-Food Canada). Experimental infections used to generate this material were carried out using established methods^72, and were approved by the Lethbridge AAFC Animal Care committee and conducted under animal use license ACC1407. Sheep faeces containing H. contortus eggs were stored at 20° C. for no longer than 48 h before harvesting eggs for use. Eggs were isolated from faeces using a standard saturated salt flotation method^61 immediately before each egg hatch assay. Approximately 100 eggs suspended in 100 μl of water were added to each well of a 96-well plate, and the exemplary compounds of the application were tested at 60 μM, 0.6% DMSO (v/v). Egg hatch rates were determined 48 hours after the initial set-up of the assay by the addition of iodine tincture to stop development. Example 13: Arabidopsis thaliana greening experiments

[6] = tested on: M. incognita; assay: Meloidogyne incognita infectivity assays (tomato roots in soil); type: in vivo; conditions: 45 μM in soil, 8 weeks, eggs per mg root relative to DMSO control
Method: as §1

Row | SMILES | % effectiveness at reducing M. incognita movement [1] | S. cerevisiae LC50 [2] | Normalized root mass (relative to DMSO control) [3] | obvious pathologies in comparison with the solvent control [4] | Hatch Rate [5] | reduction of egg hatching relative to the untreated mock control [5] | % effectiveness at inhibiting reproduction of M. incognita [6]
1 | Cc1csc2nc(-c3ccccc3)cn12 [Compound Ie] | 4.9% |  |  |  |  |  | 
2 | Clc1ccc(-c2cn3ccsc3n2)cc1 [Ia] |  | inactive | 1.3 | did not exhibit any obvious pathologies | 1.0 ± 1.7% | 99% | 27.1%
3 | Fc1ccc(-c2cn3ccsc3n2)cc1 [Ib] |  |  |  |  | 0.0 ± 0.0% | completely inhibited egg hatching | 
